# Measurements as given in the NIST ThermoML archive (doi:10.1021/je200039y).
# Numbers after ± are expanded uncertainties.
# Columns and labels:
# [1] = refractive index (Na D-line) (dimensionless); settings: 298 K; 101.33 kPa; Liquid; Standard Abbe refractometry
# [2] = Liquid
# [3] = 350.3 K, Closed cell (Static) method
# [4] = 350.43 K, Closed cell (Static) method
# [5] = 343.15 K, Ebulliometric method (Recirculating still)
structure (smiles),measurement,setting,value
"CSSC [2,3-dithiabutane]",refractive index,[1],1.5226 ± 0.0007
same,vapor or sublimation pressure,"[2]; 343.15 K, Closed cell (Static) method",27.8 ± 0.4 kPa
same,vapor or sublimation pressure,[2]; [3],36.1 ± 0.8 kPa
same,vapor or sublimation pressure,"[2]; 350.38 K, Closed cell (Static) method",36 ± 0.8 kPa
same,vapor or sublimation pressure,[2]; [4],35.8 ± 0.8 kPa
same,vapor or sublimation pressure,"[2]; 350.55 K, Closed cell (Static) method",36.1 ± 0.8 kPa
CC(C)C [2-methylpropane],vapor or sublimation pressure,"[2]; 350.54 K, Closed cell (Static) method",1269.5 ± 5.5 kPa
CCOC(C)(C)C [2-ethoxy-2-methylpropane],refractive index,[1],1.373 ± 0.0007
same,vapor or sublimation pressure,[2]; [5],92.9 ± 0.7 kPa
"Cc1ccccc1C [1,2-dimethylbenzene]",refractive index,[1],1.5026 ± 0.0007
CCO [ethanol],refractive index,[1],1.3593 ± 0.0007
same,vapor or sublimation pressure,[2]; [5],72.5 ± 0.6 kPa
C=C(C)C [2-methylpropene],vapor or sublimation pressure,[2]; [4],1154.3 ± 5 kPa
C/C=C/C [(E)-2-butene],vapor or sublimation pressure,[2]; [3],929.2 ± 4 kPa
CCCC [butane],vapor or sublimation pressure,"[2]; 350.36 K, Closed cell (Static) method",951.7 ± 4.1 kPa
